Data as given in patent US7547690B2, “Compounds for the treatment of Hepatitis C” (Bristol-Myers Squibb Company, priority 2007, dated 2009).
pEC50, pIC50: −log10 of the molar value.

Legend:
[1] = biological target: T1, HCV NS5B (Hepatitis C virus genotype 1b, UniProt Q9WMX2); assay: HCV NS5B RdRp enzyme assay (standard / modified); type: biochemical; settings: HCV RdRp genotype 1b; standard or modified assay not specified; read-out: IC50
T1 construct: The protein was expressed with an 18 amino acid C-terminal truncation to enhance the solubility; made in house; host or cells: E. coli BL21(DE3)
Procedure: HCV NS5B RdRp cloning, expression, and purification. The cDNA encoding the NS5B protein of HCV, genotype 1b, was cloned into the pET21a expression vector. The protein was expressed with an 18 amino acid C-terminal truncation to enhance the solubility. The E. coli competent cell line BL21(DE3) was used for expression of the protein. Cultures were grown at 37° C. for ˜4 hours until the cultures reached an optical density of 2.0 at 600 nm. The cultures were cooled to 20° C. and induced with 1 mM IPTG. Fresh ampicillin was added to a final concentration of 50 μg/ml and the cells were grown overnight at 20° C.
Cell pellets (3 L) were lysed for purification to yield 15-24 mgs of purified NS5B. The lysis buffer consisted of 20 mM Tris-HCl, pH 7.4, 500 mM NaCl, 0.5% triton X-100, 1 mM DTT, 1 mM EDTA, 20% glycerol, 0.5 mg/ml lysozyme, 10 mM MgCl2, 15 ug/ml deoxyribonuclease I, and Complete TM protease inhibitor tablets (Roche). After addition of the lysis buffer, frozen cell pellets were resuspended using a tissue homogenizer. To reduce the viscosity of the sample, aliquots of the lysate were sonicated on ice using a microtip attached to a Branson sonicator. The sonicated lysate was centrifuged at 100,000×g for 1 hr at 4° C. and filtered through a 0.2 μm filter unit (Corning).
The protein was purified using two sequential chromatography steps: Heparin sepharose CL-6B and polyU sepharose 4B (Pharmacia). The chromatography buffers were identical to the lysis buffer but contained no lysozyme, deoxyribonuclease I, MgCl2 or protease inhibitor and the NaCl concentration of the buffer was adjusted according to the requirements for charging the protein onto the column. Each column was eluted with a NaCl gradient which varied in length from 5-50 column volumes depending on the column type. After the final chromatography step, the resulting purity of the enzyme is >90% based on SDS-PAGE analysis. The enzyme was aliquoted and stored at −80° C.
Standard HCV NS5B RdRp enzyme assay. HCV RdRp genotype 1b assays were run in a final volume of 60 μl in 96 well plates (Corning 3600). The assay buffer is composed of 20 mM Hepes, pH 7.5, 2.5 mM KCl, 2.5 mM MgCl2, 1 mM DTT, 1.6 U RNAse inhibitor (Promega N2515), 0.01 mg/ml BSA (Sigma B6917), and 2% glycerol. All compounds were serially diluted (3-fold) in DMSO and diluted further in water such that the final concentration of DMSO in the assay was 2%. HCV RdRp genotype 1b enzyme was used at a final concentration of 28 nM. A polyA template was used at 6 nM, and a biotinylated oligo-dT12 primer was used at 180 nM final concentration. Template was obtained commercially (Amersham 27-4110). Biotinylated primer was prepared by Sigma Genosys. 3H-UTP was used at 0.6 μCi (0.29 μM total UTP). Reactions were initiated by the addition of enzyme, incubated at 30 ° C. for 60 min, and stopped by adding 25 μl of 50 mM EDTA containing SPA beads (4 μg/μl, Amersham RPNQ 0007). Plates were read on a Packard Top Count NXT after >1 hr incubation at room temperature.
Modified HCV NS5B RdRp enzyme assay. A modified enzyme assay was performed essentially as described for the standard enzyme assay except for the following: The biotinylated oligo dT12 primer was precaptured on streptavidin-coated SPA beads by mixing primer and beads in assay buffer and incubating at room temperature for one hour. Unbound primer was removed after centrifugation. The primer-bound beads were resuspended in 20 mM Hepes buffer, pH 7.5 and used in the assay at final concentrations of 20 nM primer and 0.67 μg/μl beads. Order of addition in the assay: enzyme (1.75 nM) was added to diluted compound followed by the addition of a mixture of template (0.36 nM), 3H-UTP (0.6 μCi, 0.29 μM), and primer-bound beads, to initiate the reaction; concentrations given are final. Reactions were allowed to proceed for 4 hours at 30° C.
IC50 values for compounds were determined using seven different [I]. […]

[2] = tested on: HCV replicon cells; assay: HCV replicon FRET / luciferase assay; type: cell-based; settings: Hepatitis C virus, 50% reduction in FRET or luciferase activity in HCV replicon cells; read-out: EC50
Procedure: FRET Assay Preparation. The HCV FRET screening assay was performed in 96-well cell culture plates. The FRET peptide (Anaspec, Inc.) (Taliani et al., Anal. Biochem. 1996, 240, 60-67) contains a fluorescence donor, EDANS, near one end of the peptide and an acceptor, DABCYL, near the other end. The fluorescence of the peptide is quenched by […] resonance energy transfer (RET) between the donor and the acceptor, but as the NS3 protease cleaves the peptide the products are released from RET quenching and the fluorescence of the donor becomes apparent. The assay reagent was made as follows: 5× cell Luciferase cell culture lysis reagent from Promega (#E153A) diluted to 1× with dH2O, NaCl added to 150 mM final, the FRET peptide diluted to 20 μM final from a 2 mM stock.
To prepare plates, HCV replicon cells, with or without a Renilla luciferase reporter gene, were trypsinized and plated in a 96-well plate with titrated test compounds added in columns 3 through 12; columns 1 and 2 contained a control compound (HCV control inhibitor), and the bottom row contained cells with DMSO only. The plates were then placed in a CO2 incubator at 37° C.
Assays. Subsequent to addition of the test compounds described above (FRET Assay Preparation), at various times the plate was removed and Alamar blue solution (Trek Diagnostics, #00-100) was added to measure cellular toxicity. After reading in a Cytoflour 4000 instrument (PE Biosystems), plates were rinsed with PBS and then used for FRET assay by the addition of 30 ul of the FRET peptide assay reagent described above (FRET Assay Preparation) per well. The plate was then placed into the Cytoflour 4000 instrument which had been set to 340 excite/490 emission, automatic mode for up to 20 cycles and the plate read in a kinetic mode. Typically, the signal to noise using an endpoint analysis after the reads was at least three-fold. Alternatively, after Alamar blue reading, plates were rinsed with PBS, then used for luciferase assay using the Promega Dual-Glo Luciferase Assay System or the Promega EnduRen Live Cell Substrate assay.
Compound analysis was performed by quantification of the relative HCV replicon inhibition and the relative cytotoxicity values. To calculate cytoxicity values, the average Alamar Blue fluorescence signals from the control wells were set as 100% non-toxic. The individual signals in each of the compound test wells were then divided by the average control signal and multiplied by 100% to determine […]. To calculate the HCV replicon inhibition values, an average background value was obtained from the two wells containing the highest amount of HCV control inhibitor at the end of the assay period. These numbers were similar to those obtained from naïve Huh-7 cells. The background numbers were then subtracted from the average signal obtained from the control wells and this number was used as 100% activity. The individual signals in each of the compound test wells were then divided by the averaged control values after background subtraction and multiplied by 100% to determine percent activity. EC50 values were calculated as the concentration which caused a 50% reduction in FRET or luciferase activity. The two numbers generated for the compound plate, percent cytoxicity and percent activity, were used to determine compounds of interest for further analysis.

T1 sequence (Q9WMX2 2420-2992): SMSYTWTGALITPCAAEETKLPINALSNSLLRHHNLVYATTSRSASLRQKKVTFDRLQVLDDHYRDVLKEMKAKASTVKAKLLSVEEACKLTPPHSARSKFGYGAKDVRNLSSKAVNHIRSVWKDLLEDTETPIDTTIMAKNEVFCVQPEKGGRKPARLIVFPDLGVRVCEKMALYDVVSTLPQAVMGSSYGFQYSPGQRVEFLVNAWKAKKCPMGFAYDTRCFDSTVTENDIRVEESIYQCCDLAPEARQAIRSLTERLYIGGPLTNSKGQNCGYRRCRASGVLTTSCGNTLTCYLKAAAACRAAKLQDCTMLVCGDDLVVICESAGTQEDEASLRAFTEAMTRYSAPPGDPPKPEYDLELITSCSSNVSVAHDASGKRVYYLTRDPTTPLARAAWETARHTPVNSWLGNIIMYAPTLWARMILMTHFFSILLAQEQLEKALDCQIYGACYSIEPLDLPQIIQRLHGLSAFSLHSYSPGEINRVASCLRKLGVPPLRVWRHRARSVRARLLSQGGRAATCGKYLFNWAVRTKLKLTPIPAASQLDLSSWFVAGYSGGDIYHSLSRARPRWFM

Compound | pIC50 [1] | pEC50 [2]
COc1ccc2c(c1)C1CC1(C(=O)N1[C@@H]3C[C@H]1CN(C)C3)Cn1c-2c(C2CCCCC2)c2ccc(C(=O)NS(C)(=O)=O)cc21 (stereo partly shown) | 6.30 to 8.62 | 6.30 to 8.62
COc1ccc2c(c1)C1CC1(C(=O)N1C[C@@H]3C[C@H]1CN3C)Cn1c-2c(C2CCCCC2)c2ccc(C(=O)NS(=O)(=O)N(C)C)cc21 (stereo partly shown) | > 7.70 | 6.30 to 8.62
COc1ccc2c(c1)C1CC1(C(=O)N1C3CC1CN(C)C3)Cn1c-2c(C2CCCCC2)c2ccc(C(=O)NS(=O)(=O)CC3CCCO3)cc21 (stereo not shown) | 6.30 to 8.62 | 6.30 to 8.62
COc1ccc2c(c1)C1CC1(C(=O)N1C[C@@H]3C[C@H]1CN3CC(C)C)Cn1c-2c(C2CCCCC2)c2ccc(C(=O)NS(=O)(=O)C(C)C)cc21 (stereo partly shown) [drawing 94] | 6.30 to 8.62 | 6.30 to 8.62
COc1ccc2c(c1)C1CC1(C(=O)N1C3CN(C)CC1CN(C(C)=O)C3)Cn1c-2c(C2CCCCC2)c2ccc(C(=O)NS(=O)(=O)N(C)C)cc21 (stereo not shown) | 6.30 to 8.62 | 6.30 to 8.62
COc1ccc2c(c1)C1CC1(C(=O)N1C[C@@H]3C[C@H]1CN3C(=O)OC(C)(C)C)Cn1c-2c(C2CCCCC2)c2ccc(C(=O)NS(=O)(=O)C3CC3)cc21 (stereo partly shown) | 6.30 to 8.62 | 6.30 to 8.62
COc1ccc2c(c1)C1CC1(C(=O)N1[C@@H]3CNC[C@H]1C3)Cn1c-2c(C2CCCCC2)c2ccc(C(=O)NS(=O)(=O)N(C)C)cc21 (stereo partly shown) | 6.30 to 8.62 | 6.30 to 8.62
COc1ccc2c(c1)C1CC1(C(=O)N1C3CC1CN(Cc1ccccc1)C3)Cn1c-2c(C2CCCCC2)c2ccc(C(=O)NS(=O)(=O)CC(C)C)cc21 (stereo not shown) | 6.30 to 8.62 | 6.30 to 8.62
COc1ccc2c(c1)C1CC1(C(=O)N1C3CC1CN(Cc1ccccc1)C3)Cn1c-2c(C2CCCCC2)c2ccc(C(=O)NS(=O)(=O)CC(F)(F)F)cc21 (stereo not shown) | 6.30 to 8.62 | 5.30 to 6.30
COc1ccc2c(c1)C1CC1(C(=O)N1CC3CCC1CN3)Cn1c-2c(C2CCCCC2)c2ccc(C(=O)NS(=O)(=O)C3CCCCC3)cc21 (stereo not shown) | 6.30 to 8.62 | < 6.00
COc1ccc2c(c1)[C@@H]1C[C@]1(C(=O)N1C3CC1CN(C)C3)Cn1c-2c(C2CCCCC2)c2ccc(C(=O)NS(=O)(=O)C(C)C)cc21 | 6.30 to 8.62 | 6.30 to 8.62
COc1ccc2c(c1)C1CC1(C(=O)N1CC3COCC(C1)N3C)Cn1c-2c(C2CCCCC2)c2ccc(C(=O)NS(=O)(=O)N(C)C)cc21 (stereo not shown) | 6.30 to 8.62 | 6.30 to 8.62
CCS(=O)(=O)NC(=O)c1ccc2c(C3CCCCC3)c3n(c2c1)CC1(C(=O)N2C4CCCC2CN(C)C4)CC1c1cc(OC)ccc1-3 (stereo not shown) | 6.30 to 8.62 | 6.30 to 8.62
COc1ccc2c(c1)C1CC1(C(=O)N1C3CC1CN(C)C3)Cn1c-2c(C2CCCCC2)c2ccc(C(=O)NS(=O)(=O)CC3CC3)cc21 (stereo not shown) | 6.30 to 8.62 | 6.30 to 8.62
COc1ccc2c(c1)[C@@H]1C[C@]1(C(=O)N1C3CCC1CN(C)CC3)Cn1c-2c(C2CCCCC2)c2ccc(C(=O)NS(=O)(=O)C(C)C)cc21 (stereo partly shown) | 6.30 to 8.62 | 6.30 to 8.62
COc1ccc2c(c1)C1CC1(C(=O)N1C3CC1CN(Cc1ccccc1)C3)Cn1c-2c(C2CCCCC2)c2ccc(C(=O)NS(=O)(=O)C3CCCCC3)cc21 (stereo not shown) | 6.30 to 8.62 | 5.30 to 6.30
COc1ccc2c(c1)[C@@H]1C[C@]1(C(=O)N1C3CCCC1C(=O)N(C)C3=O)Cn1c-2c(C2CCCCC2)c2ccc(C(=O)NS(=O)(=O)N(C)C)cc21 | 6.30 to 8.62 | 6.30 to 8.62
COc1ccc2c(c1)C1CC1(C(=O)N1C3CCCC1CN(C)C3)Cn1c-2c(C2CCCCC2)c2ccc(C(=O)NS(=O)(=O)C3CC3)cc21 (stereo not shown) | 6.30 to 8.62 | 6.30 to 8.62
CCC(C)S(=O)(=O)NC(=O)c1ccc2c(C3CCCCC3)c3n(c2c1)CC1(C(=O)N2C4CN(C)CC2CN(Cc2ccccc2)C4)CC1c1cc(OC)ccc1-3 (stereo not shown) | 6.30 to 8.62 | 6.30 to 8.62
COc1ccc2c(c1)C1CC1(C(=O)N1C[C@@H]3C[C@H]1CN3C)Cn1c-2c(C2CCCCC2)c2ccc(C(=O)NS(=O)(=O)C3CC3)cc21 (stereo partly shown) [drawing 72] | > 7.70 | 6.30 to 8.62
COc1ccc2c(c1)C1CC1(C(=O)N1C3CC1CN(C)C3)Cn1c-2c(C2CCCCC2)c2ccc(C(=O)NS(=O)(=O)CC(F)F)cc21 (stereo not shown) | 6.30 to 8.62 | 6.30 to 8.62
COc1ccc2c(c1)C1CC1(C(=O)N1[C@@H]3C[C@H]1CN(C)C3)Cn1c-2c(C2CCCCC2)c2ccc(C(=O)NS(=O)(=O)N3CCC3)cc21 (stereo partly shown) | 6.30 to 8.62 | 6.30 to 8.62
COc1ccc2c(c1)C1CC1(C(=O)N1CC3CCC1CN3)Cn1c-2c(C2CCCCC2)c2ccc(C(=O)NS(=O)(=O)CC(F)(F)F)cc21 (stereo not shown) | 6.30 to 8.62 | < 6.00
